{
  "source": "patent US6410544B1",
  "about": "“Cholinergic agents in the treatment of presbyopia” (Allergan Sales, Inc., priority 1998, dated 2002)",
  "key": {"[1]": {"tested_on": "eye of a presbyopic myope", "assay": "Hartinger refractometry at distance and near after one topical drop, myopic presbyope", "assay_type": "in vivo, human", "details": "for Mean Refraction, Near OS: +1.50 sphere in the right eye for near fixation; for Mean Refraction, Near OD: +1.75 sphere in the left eye for near fixation", "protocol": "(§1) This clinical study was designed to evaluate the effect of a low dose muscarinic agent such as Pilocarpine from 0.001% to less than 2% by weight values on the refractive status of the eye.\n(§2) One drop of Pilocarpine 0.3% was administered topically to the eye of a presbyopic myope and hyperope, before and after Hartinger Refractometry at distance and near was performed by the same observer.\n(§3) Refraction at distance and near was performed with the Hartinger Refractomer by the same observer prior to installation of Pilcarpine 0.3%. Three measurements were taken at distance and at near for each eye tested at each timepoint.\n(§4) In the myopic presbyope, both eyes received Piolcarpine 0.3%. In the hyperopic presbyope, only the right eye received Pilocarpine 0.3%.\n(§5) At approximately 30-50 and 60-90 minutes post installation of Pilocarpine, refraction measurements were repeated."}, "[2]": {"tested_on": "eye of a presbyopic hyperope", "assay": "Hartinger refractometry at distance and near after one topical drop, hyperopic presbyope", "assay_type": "in vivo, human", "protocol": "as §1, §2, §3, §4, §5"}, "pupil size": {"tested_on": "pupil size", "assay": "Observation of pupil size in the refractometry study", "assay_type": "in vivo, human", "details": "after one topical drop, myopic and hyperopic presbyope"}, "[3]": {"tested_on": "eye of a human adult with presbyopia", "assay": "Eye drop formulation given to a human adult with presbyopia", "assay_type": "in vivo", "details": "0.1% weight/volume in base solution pH 6.4, human adult with presbyopia", "protocol": "In a specific example of this invention, a base solution can be formulated as follows: Sodium Chloride 0.3%; Edetate Disodium 0.1%; Boric Acid 1.0%; Benzaliconium Chloride 0.01% Sodium Hydroxide (adjust to pH 6.4) and Water. Pilocarpine, at a concentration of 0.1% weight/volume, is added to the base solution. The above formulation is administered to the eye of a human adult with presbyopia, shown by their discomfort when reading, or their inability to read fine print."}, "[4]": {"tested_on": "eye of a presbyopic myope", "assay": "Hartinger refractometry at distance and near after one topical drop, myopic presbyope", "assay_type": "in vivo, human", "details": "single measurements, time point printed '30 min, 3:45 pm'"}},
  "note": "“Also recorded” adds a separate entry of the source.",
  "data": [
    {"smiles": "CC[C@@H]1C(=O)OC[C@@H]1Cc1cncn1C", "note": "[Pilocarpine 0.3%, Pilocarpine]", "values": [
      {"measurement": "change in distance and near myopic correction", "setting": "[1]; 30 and 60 minutes post dosing", "value": "small but definite decrease in the distance and near myopic correction which was greater at 60 than 30 minutes post dosing"},
      {"measurement": "Mean Refraction, Distance OD", "setting": "[1]; 30 min post instillation", "value": "−1.06", "unit": "diopters"},
      {"measurement": "Mean Refraction, Near OS", "setting": "[1]; 30 min post instillation", "value": "−1.53", "unit": "diopters"},
      {"measurement": "Mean Refraction, Near OD", "setting": "[1]; 30 min post instillation", "value": "−1.8", "unit": "diopters"},
      {"measurement": "Mean Refraction, Distance OD", "setting": "[1]; 60 min post instillation", "value": "−1.05", "unit": "diopters"},
      {"measurement": "Mean Refraction, Distance OS", "setting": "[1]; 60 min post instillation", "value": "−1.25", "unit": "diopters"},
      {"measurement": "Mean Refraction, Near OS", "setting": "[1]; 60 min post instillation", "value": "−0.95", "unit": "diopters"},
      {"measurement": "Mean Refraction, Near OD", "setting": "[1]; 60 min post instillation", "value": "−1.5", "unit": "diopters"},
      {"measurement": "Mean Refraction, Distance OD", "setting": "[2]; 50 min post instillation", "value": "+1.15 diopters"},
      {"measurement": "Mean Refraction, Near OD", "setting": "[2]; 50 min post instillation, +2.5 sphere in the left eye for near fixation", "value": "+0.17 diopters"},
      {"measurement": "Mean Refraction, Distance OD", "setting": "[2]; 90 min post instillation", "value": "+0.42 diopters"},
      {"measurement": "Mean Refraction, Near OD", "setting": "[2]; 90 min post instillation, +2.50 sphere in the left eye for near fixation", "value": "+0.38 diopters"},
      {"measurement": "change in distance and near hyperopic correction", "setting": "[2]; 90 minutes post dosing", "value": "small but definite decrease in the distance and near hyperopic correction"},
      {"measurement": "change in pupil size", "setting": "pupil size", "value": "no notable change in pupil size; also recorded: no observable effect on pupil size"},
      {"measurement": "vision after administration of the eye drops", "setting": "[3]", "value": "Vision is improved"},
      {"measurement": "Refraction, Distance OS", "setting": "[4]", "value": "−1.25", "unit": "diopters"},
      {"measurement": "Refraction, Near OD", "setting": "[4]", "value": "−1.5", "unit": "diopters"}
    ]}
  ]
}
